From patent US20040029215A1, “Process for producing rfrp” (priority 2000, published 2004)
Ends that are not written are not given here.

System: cAMP production
Assay: activity of inhibiting the cAMP production (method of Example 1 of WO 00/29441)
Assay type: cell-based
Settings: polypeptide obtained in Example 4, compared with the synthetic polypeptide of the same sequence
Method: The activity of inhibiting the cAMP production was determined for the polypeptide of the invention obtained in Example 4 (the polypeptide having the amino acid sequence of SEQ ID NO: 7) according to the method described in Example 1 of WO 00/29441.

polypeptide having the amino acid sequence of SEQ ID NO: 7: polypeptide of the invention consisting of 37 amino acid residues, excised from a recombinant RFRP-1/CS23 fusion protein by S-cyanation and ammonolysis (SLNFEELKDWGPKNVIKMSTPAVNKMPHSFANLPLRF; not fully specified (C-terminus))
activity of inhibiting the cAMP production: has the activity as much as the synthetic polypeptide
